Measured values published in patent publication US20080280920A1, “Plasminogen Activator Inhibitor-1 Inhibitors” (priority 2005, published 2008).

Legend:
[1] = test system: 60 different human cancer cell lines; test: NCI in vitro anticancer screen (whole panel); assay type: cell-based
HL-60(TB) = test: NCI anticancer screen, HL-60(TB); assay type: cell-based, human; settings: Leukemia, 48 h
MOLT-4 = test: NCI anticancer screen, MOLT-4; assay type: cell-based, human; settings: MOLT-4, Leukemia, 48 h
SR = test: NCI anticancer screen, SR; assay type: cell-based, human; settings: Leukemia, 48 h
A549/ATCC = test: NCI anticancer screen, A549/ATCC; assay type: cell-based, human; settings: Non-Small Cell Lung, 48 h
EKVX = test: NCI anticancer screen, EKVX; assay type: cell-based, human; settings: Non-Small Cell Lung, 48 h
NCI-H226 = test: NCI anticancer screen, NCI-H226; assay type: cell-based, human; settings: NCI-H226, Non-Small Cell Lung, 48 h
NCI-H322M = test: NCI anticancer screen, NCI-H322M; assay type: cell-based, human; settings: Non-Small Cell Lung, 48 h
NCI-H460 = test: NCI anticancer screen, NCI-H460; assay type: cell-based, human; settings: NCI-H460, Non-Small Cell Lung, 48 h
COLO 205 = test: NCI anticancer screen, COLO 205; assay type: cell-based, human; settings: COLO 205, Colon, 48 h
HCC-2998 = test: NCI anticancer screen, HCC-2998; assay type: cell-based, human; settings: HCC-2998, Colon, 48 h
HCT-15 = test: NCI anticancer screen, HCT-15; assay type: cell-based, human; settings: HCT-15, Colon, 48 h
HT29 = test: NCI anticancer screen, HT29; assay type: cell-based, human; settings: HT29, Colon, 48 h
SF-268 = test: NCI anticancer screen, SF-268; assay type: cell-based, human; settings: SF-268, CNS, 48 h
SF-295 = test: NCI anticancer screen, SF-295; assay type: cell-based, human; settings: SF-295, CNS, 48 h
SF-539 = test: NCI anticancer screen, SF-539; assay type: cell-based, human; settings: SF-539, CNS, 48 h
SNB-19 = test: NCI anticancer screen, SNB-19; assay type: cell-based, human; settings: SNB-19, CNS, 48 h
SK-MEL-28 = test: NCI anticancer screen, SK-MEL-28; assay type: cell-based, human; settings: SK-MEL-28, Melanoma, 48 h
SK-MEL-5 = test: NCI anticancer screen, SK-MEL-5; assay type: cell-based, human; settings: SK-MEL-5, Melanoma, 48 h
UACC-257 = test: NCI anticancer screen, UACC-257; assay type: cell-based, human; settings: UACC-257, Melanoma, 48 h
UACC-62 = test: NCI anticancer screen, UACC-62; assay type: cell-based, human; settings: UACC-62, Melanoma, 48 h
OVCAR-5 = test: NCI anticancer screen, OVCAR-5; assay type: cell-based, human; settings: OVCAR-5, Ovarian, 48 h
OVCAR-8 = test: NCI anticancer screen, OVCAR-8; assay type: cell-based, human; settings: OVCAR-8, Ovarian, 48 h
SK-OV-3 = test: NCI anticancer screen, SK-OV-3; assay type: cell-based, human; settings: SK-OV-3, Ovarian, 48 h
786-0 = test: NCI anticancer screen, 786-0; assay type: cell-based, human; settings: 786-0, Renal, 48 h
A498 = test: NCI anticancer screen, A498; assay type: cell-based, human; settings: A498, Renal, 48 h
SN12C = test: NCI anticancer screen, SN12C; assay type: cell-based, human; settings: Renal, 48 h
TK-10 = test: NCI anticancer screen, TK-10; assay type: cell-based, human; settings: TK-10, Renal, 48 h
PC-3 = test: NCI anticancer screen, PC-3; assay type: cell-based, human; settings: PC-3, Prostate, 48 h
MCF7 = test: NCI anticancer screen, MCF7; assay type: cell-based, human; settings: MCF7, Breast, 48 h
MDA-MB-435 = test: NCI anticancer screen, MDA-MB-435; assay type: cell-based, human; settings: MDA-MB-435, Breast, 48 h
[2] = Homo sapiens, read-out: LC50 (the source's name)

SMILES: COc1cc(CNCC2CCN(C(=O)OC(C)(C)C)CC2)cc(CN2CCN(c3ccccn3)CC2)c1O [Compound Q012132, 2-Methoxy-4-({[(N-t-butyloxycarbonylpiperidin-4-yl)methyl]amino}methyl)-6-[(4-pyridin-2-ylpiperazin-1-yl)methyl]phenol]
- growth and proliferation of human primary cancer cell-lines (in words) ([1]; NCI screen, 48 h): inhibited growth and proliferation
- cytostatic / cytotoxic effects on human cancer cell-lines (in words) ([1]; low micromolar concentrations, leukemia, melanoma, colon and central nervous system cell-lines): cytostatic and cytotoxic effects
- GI50 (HL-60(TB); Homo sapiens): 14.8 µM
- CC50 (HL-60(TB); [2]): 72.6 µM
- TGI (HL-60(TB)): 32.8 µM
- GI50 (MOLT-4; Homo sapiens): 13 µM
- CC50 (MOLT-4; [2]): > 100 µM
- TGI (MOLT-4): 42.4 µM
- GI50 (SR; Homo sapiens): 11 µM
- CC50 (SR; [2]): 84.4 µM
- TGI (SR): 30.5 µM
- GI50 (A549/ATCC; Homo sapiens): 31.2 µM
- LC50 (A549/ATCC; Homo sapiens): > 100 µM
- TGI (A549/ATCC): >100 µM
- GI50 (EKVX; Homo sapiens): 91.2 µM
- CC50 (EKVX; [2]): > 100 µM
- TGI (EKVX): >100 µM
- GI50 (NCI-H226; Homo sapiens): 65.5 µM
- LC50 (concentration giving 50% net cell kill) (NCI-H226; Homo sapiens): > 100 µM
- TGI (NCI-H226): >100 µM
- GI50 (NCI-H322M; Homo sapiens): 37.8 µM
- CC50 (NCI-H322M; [2]): > 100 µM
- TGI (NCI-H322M): >100 µM
- GI50 (NCI-H460; Homo sapiens): 21.3 µM
- CC50 (NCI-H460; [2]): 81.7 µM
- TGI (NCI-H460): 41.7 µM
- TGI (COLO 205): 34.8 µM
- GI50 (COLO 205; Homo sapiens): 16.8 µM
- CC50 (COLO 205; [2]): 72.1 µM
- TGI (HCC-2998): 28.9 µM
- GI50 (HCC-2998; Homo sapiens): 14.5 µM
- LC50 (HCC-2998; Homo sapiens): 57.7 µM
- TGI (HCT-15): 36.9 µM
- GI50 (HCT-15; Homo sapiens): 16.8 µM
- CC50 (HCT-15; [2]): 80.8 µM
- TGI (HT29): 16.7 µM
- GI50 (HT29; Homo sapiens, HT-29): 3.11 µM
- CC50 (HT29; Homo sapiens, HT-29, read-out: LC50 (the source's name)): 63 µM
- GI50 (SF-268; Homo sapiens): 18.5 µM
- LC50 (SF-268; Homo sapiens): > 100 µM
- TGI (SF-268): 44.1 µM
- GI50 (SF-295; Homo sapiens): 19.3 µM
- CC50 (SF-295; [2]): 89 µM
- TGI (SF-295): 41.4 µM
- GI50 (SF-539; Homo sapiens): 14.6 µM
- CC50 (SF-539; [2]): 54.6 µM
- TGI (SF-539): 28.2 µM
- GI50 (SNB-19; Homo sapiens): 41.8 µM
- CC50 (SNB-19; [2]): > 100 µM
- TGI (SNB-19): >100 µM
- GI50 (SK-MEL-28; Homo sapiens): 16.8 µM
- CC50 (SK-MEL-28; [2]): 75.5 µM
- TGI (SK-MEL-28): 35.6 µM
- GI50 (SK-MEL-5; Homo sapiens): 13.1 µM
- CC50 (SK-MEL-5; [2]): 51.5 µM
- TGI (SK-MEL-5): 26.0 µM
- GI50 (UACC-257; Homo sapiens): 18.4 µM
- CC50 (UACC-257; [2]): > 100 µM
- TGI (UACC-257): 45.7 µM
- GI50 (UACC-62; Homo sapiens): 17.2 µM
- CC50 (UACC-62; [2]): 64.3 µM
- TGI (UACC-62): 33.3 µM
- GI50 (OVCAR-5; Homo sapiens): 29.3 µM
- CC50 (OVCAR-5; [2]): > 100 µM
- TGI (OVCAR-5): >100 µM
- GI50 (OVCAR-8; Homo sapiens): 22.3 µM
- CC50 (OVCAR-8; [2]): > 100 µM
- TGI (OVCAR-8): 61.8 µM
- GI50 (SK-OV-3; Homo sapiens): 29.4 µM
- CC50 (SK-OV-3; [2]): > 100 µM
- TGI (SK-OV-3): 98.8 µM
- TGI (786-0): 28.2 µM
- GI50 (786-0; Homo sapiens): 14.9 µM
- CC50 (786-0; [2]): 53.1 µM
- TGI (A498): 36.3 µM
- GI50 (A498; Homo sapiens): 17.8 µM
- CC50 (A498; [2]): 74.1 µM
- CC50 (SN12C; [2]): > 100 µM
- TGI (SN12C): >100 µM
- GI50 (TK-10; Homo sapiens): 19.5 µM
- CC50 (TK-10; [2]): 86.5 µM
- TGI (TK-10): 41.0 µM
- GI50 (PC-3; Homo sapiens): 21.8 µM
- CC50 (PC-3; [2]): > 100 µM
- TGI (PC-3): 81.1 µM
- GI50 (MCF7; Homo sapiens): 18.6 µM
- CC50 (MCF7; [2]): 73 µM
- TGI (MCF7): 36.9 µM
- GI50 (MDA-MB-435; Homo sapiens): 18.2 µM
- CC50 (MDA-MB-435; [2]): 73.1 µM
- TGI (MDA-MB-435): 36.4 µM
